Results from patent publication US20210346317A1, “TREATMENT OF HEMATOPOIETIC STEM CELL TRANSPLANT PATIENTS” (PRIOTHERA LIMITED, priority 2016, published 2021).

Legend:
[1] = system: Recipient C57BL/6 or IDUAKI (B6.129S-Iduatm1.1Kmke/J) mice; assay: Mouse model of inherited metabolic disease (IMD): HSC engraftment after mild non-myeloablative conditioning; type: in vivo
Excerpt: Recipient C57BL/6 or IDUAKI (B6.129S-Iduatm1.1Kmke/J) mice were conditioned with a mild non-myeloablative regimen. A limited number of 1×10E3 HSC were transplanted from congenic mice. Groups were either untreated or treated with KRP for 15 days.

patients undergoing HSCT = assay: Neutrophil engraftment in patients after allogeneic hematopoietic stem cell transplantation; type: in vivo; conditions: for neutrophil count above baseline: e.g. 2 mg KRP203/per day
Method: Day 1=drug treatment commences (e.g. 2 mg KRP203/per day)
Day 2 and Day 10: Conditioning was performed as described above (e.g. Mini Seattle or RIC)
Day 11: transplantation of stem cells from an allogeneic donor is being carried out
To monitor for engraftment of donor hematopoietic stem cells in recipients, the neutrophil count is measured usually daily. The commonly accepted definition of “day of engraftment” (take) is the first of three consecutive days with a neutrophil count higher than 500 cells per microliter. A neutrophil count of higher than 500 cells per microliter is reached in the below experiment, when the probability of engraftment is 1.0 (100%) versus baseline or higher. The donor origin of these cells is normally confirmed by genomic analyses on day 30.

[2] = day 56, 1×10E3 HSC from congenic mice, treated for 15 days, vs untreated group

## NC(CO)(CO)CCc1ccc(Sc2cccc(OCc3ccccc3)c2)cc1Cl [KRP203, 2-amino-2-[4-(3-benzyloxyphenylthio)-2-chlorophenyl]ethyl-propane-1,3-diol]
[1]; [2]
  donor cells in engrafted mice: more donor cells than the untreated group
  mice engrafted: More mice from the KRP203 treated group engrafted
[1]; non-myeloablative conditions, limited HSC, treatment in the peri-transplant period
  engraftment (conclusion): augments engraftment
Patients undergoing HSCT; Day 0
  Probability of neutrophil engraftment: 0.00
Patients undergoing HSCT; Day 10
  Probability of neutrophil engraftment: 0.00
Patients undergoing HSCT; Day 11
  Probability of neutrophil engraftment: 0.33
Patients undergoing HSCT; Day 11, control group 11%
  neutrophil count above baseline: 33 % above baseline
Patients undergoing HSCT; Day 12
  Probability of neutrophil engraftment: 0.44
Patients undergoing HSCT; Day 13
  Probability of neutrophil engraftment: 0.67
Patients undergoing HSCT; Day 14
  Probability of neutrophil engraftment: 0.89
Patients undergoing HSCT; Day 15
  Probability of neutrophil engraftment: 1.00
Patients undergoing HSCT; Day 15, control group 48%
  neutrophil count above baseline: 100 % above baseline
Patients undergoing HSCT; Day 16
  Probability of neutrophil engraftment: 1.00
Patients undergoing HSCT; Day 17
  Probability of neutrophil engraftment: 1.00
Patients undergoing HSCT; Day 18
  Probability of neutrophil engraftment: 1.00
Patients undergoing HSCT; Day 19
  Probability of neutrophil engraftment: 1.00
Patients undergoing HSCT; Day 20
  Probability of neutrophil engraftment: 1.00
Patients undergoing HSCT; Day 21
  Probability of neutrophil engraftment: 1.00
Patients undergoing HSCT; Day 22
  Probability of neutrophil engraftment: 1.00
Patients undergoing HSCT; Day 23
  Probability of neutrophil engraftment: 1.00
Patients undergoing HSCT; FIG. 1 and Table 1, patients treated with KRP203
  speed of engraftment vs control group: engrafted much faster than the control group
